{
  "source": "patent US10350334B2",
  "about": "“Catheter locking solution having antimicrobial and anticoagulation properties” (Becton, Dickinson and Company, priority 2009, dated 2019)",
  "key": {"[1]": {"test_system": "Staphylococcus epidermidis biofilm", "experiment": "Catheter biofilm eradication (catheter segment test) on silicone tubing", "type": "cell-based", "conditions": "1 hour, silicone catheter segments", "description": "(§1) To understand the antimicrobial effects of the local anesthetics used in the lock solution of the present invention in a clinical setting, a biofilm was grown on silicone catheter-like tubing and treated with various concentrations of local anesthetics. First, a sterile silicone catheter-like tube containing 10 mL TSB media was inoculated with a BD BBL™ Qualiswab™, and placed in an incubator at 37° C. overnight. The next day, a sterile flask containing 25 mL TSB (for bacterial species) or 25 mL SDB (for fungal species) was inoculated with the cultured cells. The morning of the experiment, a new flask containing 25 mL of media was inoculated with the new overnight suspension. These steps were taken to ensure that cells were in the log phase, which for S. epidermidis was ˜3-4 hours, and for C. albicans was around ˜18 hrs. […] Microbial concentrations were adjusted to 1×10^5 CFU/mL by dilution with appropriate media. Silicone catheter-like tubing was terminally sterilized by autoclaving the tube for 45 minutes at 121° C. The sterilized catheter-like tubing was inoculated with 1×10^5 CFU/mL for 2 hours under continuous flow. Continuous flow was created by using a peristaltic pump, in which bacterial suspension was flowed through the catheter segments into a waste reservoir. After the 2 hour time period, the same set up was used to pump TSB media through the tubing for an additional 24 hours to allow biofilm to form on the walls of the catheter lumen. After 24 hours, sterilized saline was pumped through the lumen for 30 minutes to rinse the catheters. Catheters were then cut into 1 inch segments using sterile techniques. Catheter segments were dropped into sterile tubes containing 4 mL of antimicrobials, and incubated in a 37° C. incubator shaker for 1 hour. Segments were removed from treatment tubes and placed into new tubes filled with 6 mL of sterile saline. Each segment was swabbed with a sterile swab and both the tube and the swab were sonicated (Ultrasonic cleaner VWR Model 250T) for 3 minutes. Tubes and swabs were then vortexed (Fisher Scientific Vortex Mixer #02-215-365) for 30 seconds each. One hundred microliters of suspension was plated onto TSB agar plates (SDB for fungal species). The remaining 5.9 mL of suspension was passed through 0.4 μm filters and filters were placed on TSB plates. This step was taken to ensure that all possible bacteria were being recovered. All TSB plates were then incubated at 37° C. in a static incubator for 24-48 hours, at which time colony forming units were counted."}, "S. epidermidis": {"test_system": "S. epidermidis", "experiment": "Minimum Biofilm Inhibitory Concentration (MBIC) test", "type": "cell-based, Staphylococcus epidermidis", "conditions": "for MBIC: adhered cells, 24 hours incubation; for MBIC Assuming 2 mL lock volume: amount in 2 mL lock volume", "description": "(§2) To further evaluate the efficacy of local anesthetics in antimicrobial lock solutions of the present invention, the minimum concentration at which these drugs can inhibit biofilm growth was tested. The local anesthetics identified in Table 4 were tested against three different species of bacteria identified in Table 3 to assess the antimicrobial efficacy against adhered microbes. It is known that adhered microbes, or biofilms, can be more resistant to antimicrobials than planktonic cells.\n(§3) Experiments were conducted against adhered microbes as follows: first, a test tube containing 10 mL of sterile TSB was inocubated with BD BBL™ Qualiswab™, with the strain of interest. The tube was placed in an incubator at 37° C. overnight. The next day, a flask containing 25 mL of sterile TSB (or Sabouraud Dextrose Broth (SDB) for fungal species) was inoculated with 1 mL of bacterial suspension. The flask was placed in an incubator at 37° C. and shaken at 150 RPM. The next day a new flask containing 25 mL of TSB (or SDB) media was inoculated with 1 mL from the previous culture. The bacterial or fungal species were allowed to grow to log phase.\n(§4) After the microbes entered the log phase, their concentration was checked to ensure that they had reached a minimum of 1×10^8 CFU/mL per a 0.5 MacFarland standard. Microbes were diluted to a concentration of 1×10^5 CFU/mL using a nephelometer and 200 μL of the microbial suspensions were plated on each of the wells of a 96 well plate. The plate was incubated in a standard incubator at 37° C. for 2 hours to allow for microbial cell adhesion. Next, dilutions of the desired concentrations of antimicrobials were prepared. In a separate, blank plate, 1:2 serial dilutions were prepared with the highest concentration of the antimicrobial to the left of the plate, decreasing in concentration towards the right of the plate. For example, 170 μL of the highest concentration of an antimicrobial was dispensed in column 1 (left of plate). Each of the rest of the columns received 170 μL of saline. Column 2 received 170 μL of antimicrobial, making for a 1:2 dilution (or 50% of original concentration). Contents of Column 2 were then transferred to 3, then from 3 to 4, and so forth. Each well was supplemented with 20% media (TSB for S. epidermidis and P. aeruginosa and SDB for C. albicans), thereby ensuring the viability of the cells over the test time period (24 hours). Positive control wells had 20% media in saline. The bacterial plate was removed from the incubator, and bacterial suspension discarded (adhered cells remain on plate). The antimicrobial formulations identified in Table 4 were then added to the bacterial plate and incubated in a standard incubator at 37° C. for 24 hours. After this time period, solutions in the plate were discarded and plates were rinsed with 200 μL of saline. The cells were then fixed with 200 μL of 95% ethanol for 30 minutes, and allowed to air dry for 10 minutes. Next, the cells were stained for 20 minutes with 250 μL of a filtered solution of 2% crystal violet dye. The plates were then rinsed three times with water, and the 2% crystal violet dye was solubilized with 300 μL of 95% ethanol. The plates were allowed to stand for 10 minutes to complete solubilization and then the plates were read on a spectrophotometer at 570 nm absorbance, wherein high absorbance readings of >0.600 indicated microbial growth. Columns in the plate that had no growth were recorded as the […] (MBIC). FIG. 2 illustrates the MBIC corresponding to the specific local anesthetics."}, "C. albicans": {"test_system": "C. albicans", "experiment": "Minimum Biofilm Inhibitory Concentration (MBIC) test", "type": "cell-based, Candida albicans", "conditions": "for MBIC: adhered cells, 24 hours incubation; for MBIC Assuming 2 mL lock volume: amount in 2 mL lock volume", "description": "as §2, §3, §4"}, "P. aeruginosa": {"test_system": "P. aeruginosa", "experiment": "Minimum Biofilm Inhibitory Concentration (MBIC) test", "type": "cell-based, Pseudomonas aeruginosa", "conditions": "for MBIC: adhered cells, 24 hours incubation; for MBIC Assuming 2 mL lock volume: amount in 2 mL lock volume", "description": "as §2, §3, §4"}, "[2]": {"test_system": "Staphylococcus epidermidis", "experiment": "Planktonic cell tests", "type": "cell-based", "conditions": "heparin solution", "description": "In the planktonic cell tests, bupivacine was tested against non-adhering coagulase negative S. epidermidis, which is the bacterial species most prominent in the pathogenesis of CR-BSI. The planktonic cell experiments were performed by the following procedures. First, bacterial suspensions were prepared. Particularly, using BD BBL™ Qualiswab™, S. epidermidis was plated on a Tryptic Soy Broth (TSB) Petri Dish and grown overnight at 37° C. Using a sterile loop, a colony of S. epidermidis was picked up from the TSB Petri Dish and placed into a sterile flask containing 25 mL of sterile TSB media. The flask was then placed in a 37° C. shaking incubator and was shaken at 150 RPM overnight. The next day, 15 mL of the prepared bacterial suspension was placed into an autoclaved centrifuge tube and centrifuged at 10,000 RPM for 10 minutes using a Sorval Centrifuge. The bacteria from the bacterial suspension were rinsed in 0.9% saline by discarding the liquid media (after centrifugation step) and by resuspending the microbial pellet in 20 mL of sterile 0.9% saline. The bacteria were centrifuged and rinsed twice more, for a total of three saline rinses. […]\nBulk concentrations of the bupivacaine and/or vancomyacin (as noted in FIG. 1) were prepared in separate beakers and were filter sterilized. […] Samples were also assessed at time 0, in which there was no exposure to antimicrobials. […]"}, "sheep plasma": {"test_system": "sheep plasma", "experiment": "Sheep's Plasma Clotting Assay (USP coagulation test)", "type": "biochemical", "description": "In order to understand what the working concentration range could be for the anesthetics tested, a Sheep's Plasma Clotting Assay was performed. This test is based on the United States Pharmacopeia (USP) standard test for coagulation and is often used to understand heparin potency. […] Sheep plasma was thawed in a water bath set to 37° C. To facilitate thawing, the plasma in the bottle was inverted every 15 minutes. The plasma was thawed after about 45-60 minutes. The thawed sheep plasma was filtered through glass wool or filtered into a clean glass beaker or flask, to remove particulate matter and to activate it. About 70-80 mL of filtered sheep plasma was collected. Next, a set of test tubes were prepared (VWR Disposable 13×100-mm) in a 6×12 rack. Ten test tubes were needed for each test solution including ten test tubes for the heparin standard. […] For each test solution, every (10) test tube received different volumes of 0.9% NaCl. […] Next, the local anesthetics were added, namely, tetracaine at 30 mg/mL, dibucaine at 30 mg/mL, and bupivacaine at 38 mg/mL. Each of the ten test tubes received different volumes of test solutions, starting with 280 μL and increasing in volume by 20 μL until reaching a volume of 460 μL at the tenth tube. The total volume of saline and test solutions in each of the tubes was 800 μL. A standard solution, namely, USP heparin sodium standard, was also prepared in the same way, with the starting concentration of heparin being 5.6 U/mL. Next, 1 mL of sheep plasma for heparin assay (Bio-Supplies, Inc, P-SPR-1500) was pipetted into each tube, and the rack was gently shaken to ensure mixing. Two hundred μL of a 1% CaCl2 solution was placed into each tube. The total volume for each tube is 2 mL. Each tube was capped with a VWR Plug-type cap, and contents of each tube were inverted six times to ensure that the entire inner wall of each tube was wet. Tubes were incubated for 1 hour at room temperature. After the 1 hour time period, the extent of clotting in each tube was determined by gently shaking each individual test tube (tapping the end gently is acceptable) and then tilting the tube to observe a clot both vertically and horizontally. The degree to which each tube developed a clot was recorded using the following criteria (per the USP Standard) for the visual inspection of the tubes: • 0% Clotting=No apparent clot formed. • 25% Clotting=Small observable clot with mostly liquid. Clot is very mobile. • 50% Clotting=Plasma is completely clotted but mobile. • 75% Clotting=Clot is not mobile but liquid is still present. • 100% Clotting=Clot is not mobile and no liquid is present.\nBecause of the testing protocol, starting concentrations of anesthetics were diluted from the original formulation. Calculations can be made to compare the efficacy of these anesthetics to the standard anticoagulant heparin by calculating the point at which both standard and test samples yield 50% clotting. Using this calculation, the anesthetic concentration can be referenced back to a measure of U/mL of heparin equivalence."}, "[3]": {"experiment": "Internal testing of anticoagulant equivalence to heparin", "conditions": "per internal testing"}, "Candida albicans biofilm": {"test_system": "Candida albicans biofilm", "experiment": "Catheter biofilm eradication (catheter segment test) on silicone tubing", "type": "cell-based", "conditions": "38 mg/mL, 1 hour, silicone catheter segments", "description": "as §1"}},
  "note": "Where “and” joins values, the source holds several entries; their conditions need not be identical. Equal values may be shown once.",
  "data": [
    {"compound": "CCCNC(C)C(=O)Nc1ccccc1C.Cl", "note": "(stereo not drawn) [Prilocaine, Prilocaine HCl]", "values": [
      {"measurement": "antimicrobial effect on established biofilm", "setting": "[1]", "result": "minimal antimicrobial effect"}
    ]},
    {"compound": "Cc1cccc(C)c1NC(=O)C1CCCCN1C.Cl", "note": "(stereo not drawn) [Mepivacaine, Mepivacaine HCl]", "values": [
      {"measurement": "Log reduction of established biofilm", "setting": "[1]; 28 mg/mL", "result": 1.6, "unit": "Log"},
      {"measurement": "MBIC", "setting": "S. epidermidis", "result": 28.2, "unit": "mg/mL"},
      {"measurement": "MBIC Assuming 2 mL lock volume", "setting": "S. epidermidis", "result": 56.4, "unit": "mg"},
      {"measurement": "MBIC", "setting": "C. albicans", "result": "No inhibition"},
      {"measurement": "MBIC Assuming 2 mL lock volume", "setting": "C. albicans", "result": "No inhibition"},
      {"measurement": "MBIC", "setting": "P. aeruginosa", "result": 28.2, "unit": "mg/mL"},
      {"measurement": "MBIC Assuming 2 mL lock volume", "setting": "P. aeruginosa", "result": 56.4, "unit": "mg"}
    ]},
    {"compound": "heparin", "values": [
      {"measurement": "antimicrobial effect against planktonic Staphylococcus epidermidis", "setting": "[2]", "result": "virtually no antimicrobial effect"},
      {"measurement": "volume at 50% coagulation", "setting": "sheep plasma; Rep 1", "result": 370, "unit": "µL"}
    ]},
    {"compound": "O=C([O-])CC(O)(CC(=O)[O-])C(=O)[O-].[Na+].[Na+].[Na+]", "note": "[sodium citrate]", "values": [
      {"measurement": "anticoagulant equivalence to heparin", "setting": "[3]", "result": "about 20 units/mL of heparin"}
    ]},
    {"compound": "CCCCOc1cc(C(=O)NCCN(CC)CC)c2ccccc2n1.Cl", "note": "[Dibucaine, Dibucaine HCl]", "values": [
      {"measurement": "eradication of established biofilm", "setting": "Candida albicans biofilm", "result": "completely eradicated"},
      {"measurement": "Log reduction of established biofilm", "setting": "[1]; 38 mg/mL", "result": "~0.5", "unit": "Log"},
      {"measurement": "MBIC", "setting": "S. epidermidis", "result": 0.59, "unit": "mg/mL"},
      {"measurement": "MBIC Assuming 2 mL lock volume", "setting": "S. epidermidis", "result": 1.18, "unit": "mg"},
      {"measurement": "MBIC", "setting": "C. albicans", "result": 0.59, "unit": "mg/mL"},
      {"measurement": "MBIC Assuming 2 mL lock volume", "setting": "C. albicans", "result": 1.18, "unit": "mg"},
      {"measurement": "MBIC", "setting": "P. aeruginosa; HCl", "result": "4.794 mg/mL and 4.75 mg/mL"},
      {"measurement": "MBIC Assuming 2 mL lock volume", "setting": "P. aeruginosa", "result": 9.5, "unit": "mg"},
      {"measurement": "Equivalence to Heparin", "setting": "sheep plasma; calculated from volumes giving 50% clotting versus heparin standard, per replicate", "result": 6.23, "unit": "U/mL"},
      {"measurement": "50% clotting range", "setting": "sheep plasma; final concentration in tube, 1 hour at room temperature, per replicate", "result": "5.1 to 5.4", "unit": "mg/mL"}
    ]}
  ]
}
